Data published in patent US10914722B2, “Sensor array and apparatus for simultaneous observation of tissue electrophysiology, contractility, and growth” (Lawrence Livermore National Security, LLC, priority 2017, dated 2021).

Test system: human induced pluripotent stem cell-derived cardiomyocytes (iPS-CMs)
Experiment: simultaneous field potential (MEA), impedance (IDE) and optical recording of cardiac tissue pre-/post-drug exposure and after wash-out
Type: cell-based
Description: Measurements were repeated once more after washing the culture to flush the blebbistatin from the system. FIGS. 7A-7C show the field potential (left) and corresponding impedance changes (right) prior to exposure to blebbistatin (FIG. 7A), after exposure to blebbistatin (FIG. 7B) and following flushing of blebbistatin from the system (FIG. 7C).
Prior to compound addition, the tissue beat spontaneously and rhythmically at a rate of 14 bpm, as shown from both the FP profile and impedance profile of FIG. 7A.
Human iPS-CMs were purchased from Cellular Dynamics International (Madison, Wis.). Cells were stored in liquid nitrogen before use. Prior to cell seeding, device culture chambers were sterilized with 70% ethanol, rinsed with autoclaved water, then incubated overnight with 40 μg/mL fibronectin (Sigma-Aldrich, St Louis, Mo.) at 37° C. Cells were seeded at a density of 120K cells/cm2 and kept in an incubator at 37° C. and 5% CO2. Media was exchanged 4 hrs after seeding, then every 48 hours subsequently.
The MEA was connected via electrical connector(s), preferably OMNETICS™ connectors to an AlphaLab SnR multi-channel recording system (Alpha Omega, Alpharetta, Ga.) to record voltages as a function of time across all 16 electrodes of the MEA. Offline analysis of temporal differences between the 16 electrodes when voltage spikes occur generates an activation map. The activation map illustrates FP spatial propagation in the cardiac tissue monolayer across the surface area of the device.
For measuring cardiac contraction, high-speed impedance time recording was performed using a Keysight E4990A Impedance Analyzer (Keysight Technologies Inc., Santa Rosa, Calif.) and controlled using custom LabVIEW software (National Instruments, Austin, Tex.). For each device, impedance was measured at multiple frequencies between 5 kHz and 200 kHz to determine the frequency range that gives the highest signal-to-noise ratio.
Norepinephrine and blebbistatin were purchased from Sigma-Aldrich (St Louis, Mo., USA). Both drugs were dissolved in 0.1% dimethyl sulfoxide and stored at −20° C. Drugs were diluted to desired concentrations in cell media immediately before use. Prior to drug exposure, pre-drug electrophysiology and contraction data of the cardiac tissues on a device were collected for five minutes. Next, cell media was removed from the chamber on the device, drug was added and device was incubated at 37° C. and 5% CO2 for 15 minutes. Recording was again started with the drug. Afterwards, the drug solution was removed and the culture chamber was rinsed three times with cell media, incubated at 37° C. and 5% CO2 for another 15 minutes before performing drug wash-out measurements.

[1] = after incubation with 10 μM, FIG. 7B

Cc1ccc2c(c1)C(=O)C1(O)CCN(c3ccccc3)C1=N2 (stereo not shown) [blebbistatin]
action potential pattern (MEA data) [1]: not affected
impedance recording (contraction signal, IDE) [1]: flat baseline signal
tissue contraction observed under an optical microscope (after incubation with 10 μM, pre-drug spontaneous beating at 14 bpm, FIG. 7B): static
tissue contractility after washing out (impedance peaks and optical observation) (wash-out after 10 μM exposure, FIG. 7C): restored the tissue contractility
